Test results published in patent US9315503B2, “Kinase inhibitors” (CHIESI FARMACEUTICI S.p.A., priority 2011, dated 2016).
Counter-ions that a name gives are not always drawn.

Legend:
p38alpha = target: T1, p38alpha (Homo sapiens, UniProt Q16539); experiment: P38Alpha enzyme inhibition assay (Alphascreen kinase activity assay); format: biochemical; conditions: 100 pM p38alpha, 250 μM ATP, 2 hours pre-incubation at 25° C., read-out: p38α inhibition (IC50 values)
T1 construct: purchased Invitrogen PV3304
T1 sequence (Q16539 whole entry): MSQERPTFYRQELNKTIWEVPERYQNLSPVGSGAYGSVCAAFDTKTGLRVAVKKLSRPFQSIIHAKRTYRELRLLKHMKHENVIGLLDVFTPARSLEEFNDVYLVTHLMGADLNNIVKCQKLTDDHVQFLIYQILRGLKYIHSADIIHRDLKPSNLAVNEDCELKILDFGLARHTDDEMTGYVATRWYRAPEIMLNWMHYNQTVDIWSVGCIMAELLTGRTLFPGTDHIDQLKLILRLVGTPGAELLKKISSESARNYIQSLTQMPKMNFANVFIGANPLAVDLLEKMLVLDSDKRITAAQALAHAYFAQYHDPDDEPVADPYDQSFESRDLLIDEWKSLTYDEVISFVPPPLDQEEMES
Description: P38Alpha Enzyme Inhibition Assay.
The inhibitory activity of compounds was determined using an Alphascreen® (Perkin Elmer) based kinase activity assay. Kinase reactions consisted of 25 mM HEPES pH 7.5, 10 mM MgCl2, 100 μM Na3VO4, 2 mM DTT, 0.05 mg/ml Tween 20, 100 pM p38alpha (Invitrogen, PV3304), 1% DMSO and 0.3 μg/ml ATF-2 fusion protein (New England Biolabs, 9224). Compounds were incubated under these conditions for 2 hours, at 25° C., prior to the initiation of the kinase activity by the addition of the 250 μM ATP. Reaction volumes were 20 uL. After 1 hr at 25° C. reactions were stopped by the adding 10 uL of 25 mM HEPES pH 7.5 containing 62.5 mM EDTA, 0.05% Triton X-100, 10% BSA and 0.83 ng/uL anti-phospho-ATF2 antibody (Abeam, ab28812). Detection was performed by measuring luminescence following the addition of Alphascreen Donor beads (Perkin Elmer 6765300) and Protein A Alphascreen Acceptor beads (Perkin Elmer 6760137), both at a final concentration of 20 ug/ml. IC50 values were determined from concentration-response curves.

[1] = test system: LPS-stimulated TNFα release from PBMCs; experiment: LPS-stimulated PBMC TNFα release assay; format: cell-based; conditions: inhibition of TNFα release, human PBMCs, LPS 10 ng/ml, 18 h, ELISA, read-out: p38α inhibition (IC50 values)
Description: LPS-Stimulated PBMC TNFα Release Assay.
Peripheral Blood Mononuclear Cells (PBMCs) were isolated from healthy human volunteer blood using a standard density gradient centrifugation technique. Citrated blood was placed onto Histopaque™ and centrifuged. The PBMCs were removed from the density gradient interface and washed in phosphate buffered saline (PBS). The PBMCs were suspended in RPMI 1640 medium (without serum), dispensed into a 96-well plate and incubated at 37° C. for 3 h in a humidified incubator. After incubation, the medium was replaced (with medium containing 1% foetal bovine serum) and the plate incubated at 37° C., for 1 h, in the presence of test compound or the appropriate vehicle. LPS (10 ng/ml), or an appropriate vehicle control, was then added to the cells and the plate returned to the incubator for 18 h. Cell-free supernatants were removed and assayed for TNFα levels using an ELISA kit from R&D Systems.
A dose response curve to each test compound was performed and the effect of compound in each experiment was expressed as a percentage inhibition of the control TNFα release. Dose response curves were plotted and compound potency (IC50) was determined. Compounds were tested in at least three separate experiments.

IC50 (p38alpha)	SMILES	IC50 [1]
< 10 nM	Cc1ccc(-n2nc(C(C)(C)C)cc2NC(=O)N[C@H]2CC[C@@H](Oc3ccc4nnc([C@@H]5CCCCN5C)n4c3)c3ccccc32)cc1 [Example 62, 1-(5-tert-Butyl-2-p-tolyl-2H-pyrazol-3-yl)-3-{(1S,4R)-4-[3-((S)-1-methyl-piperidin-2-yl)-[1,2,4]triazolo[4,3-a]pyridin-6-yloxy]-1,2,3,4-tetrahydro-naphthalen-1-yl}-urea]	< 10 nM
< 10 nM	Cc1ccc(-n2nc(C(C)(C)C)cc2NC(=O)N[C@H]2CC[C@@H](Oc3ccc4nnc([C@]5(CO)CCCN5C)n4c3)c3ccccc32)cc1 [Example 85, 1-(5-tert-Butyl-2-p-tolyl-2H-pyrazol-3-yl)-3-{(1S,4R)-4-[3-((S)-2-hydroxymethyl-1-methyl-pyrrolidin-2-yl)-[1,2,4]triazolo[4,3-a]pyridin-6-yloxy]-1,2,3,4-tetrahydro-naphthalen-1-yl}-urea]	< 10 nM
< 10 nM	C[C@H]1CCCCN1c1nnc2ccc(O[C@@H]3CC[C@H](NC(=O)Nc4cc(C(C)(C)C)nn4CCN4CCOCC4)c4ccccc43)cn12 [Example 116, 1-[5-tert-Butyl-2-(2-morpholin-4-yl-ethyl)-2H-pyrazol-3-yl]-3-{(1S,4R)-4-[3-((S)-2-methyl-piperidin-1-yl)-[1,2,4]triazolo[4,3-a]pyridin-6-yloxy]-1,2,3,4-tetrahydro-naphthalen-1-yl}-urea]	< 10 nM
< 10 nM	Cc1ccc(-n2nc(C(C)(C)C)cc2NC(=O)N[C@H]2CC[C@@H](Oc3ccc4nnc(N5CC[C@H](CO)C5)n4c3)c3ccccc32)cc1 [Example 92, 1-(5-tert-Butyl-2-p-tolyl-2H-pyrazol-3-yl)-3-{(1S,4R)-4-[3-((S)-3-hydroxymethyl-pyrrolidin-1-yl)-[1,2,4]triazolo[4,3-a]pyridin-6-yloxy]-1,2,3,4-tetrahydro-naphthalen-1-yl}-urea]	< 10 nM
< 10 nM	Cc1ccc(-n2nc(C(C)(C)C)cc2NC(=O)N[C@H]2CC[C@@H](Oc3ccc4nnc(CC5CCN(C)CC5)n4c3)c3ccccc32)cc1 [Example 22, 1-(5-tert-Butyl-2-p-tolyl-2H-pyrazol-3-yl)-3-{(1S,4R)-4-[3-(1-methyl-piperidin-4-ylmethyl)-[1,2,4]triazolo[4,3-a]pyridin-6-yloxy]-1,2,3,4-tetrahydro-naphthalen-1-yl}-urea]	100 to 1000 nM
< 10 nM	Cc1ccc(-n2nc(C(C)(C)C)cc2NC(=O)N[C@H]2CC[C@@H](Oc3ccc4nnc(N)n4c3)c3ccccc32)cc1 [Example 101, 1-[(1S,4R)-4-(3-Amino-[1,2,4]triazolo[4,3-a]pyridin-6-yloxy)-1,2,3,4-tetrahydro-naphthalen-1-yl]-3-(5-tert-butyl-2-p-tolyl-2H-pyrazol-3-yl)-urea]	< 10 nM
–	Cc1ccc(-n2nc(C(C)(C)C)cc2NC(=O)N[C@H]2CC[C@@H](Oc3ccc4nnc(CN5CCCC5)n4c3)c3ccccc32)cc1 [Example 16, 1-(5-tert-Butyl-2-p-tolyl-2H-pyrazol-3-yl)-3-[(1S,4R)-4-(3-pyrrolidin-1-ylmethyl-[1,2,4]triazolo[4,3-a]pyridin-6-yloxy)-1,2,3,4-tetrahydro-naphthalen-1-yl]-urea]	< 10 nM
–	Cc1ccc(-n2nc(C(C)(C)C)cc2NC(=O)N[C@H]2CC[C@@H](Oc3ccc4nnc(CN5CCN(C)CC5)n4c3)c3ccccc32)cc1 [Example 14, 1-(5-tert-Butyl-2-p-tolyl-2H-pyrazol-3-yl)-3-{(1S,4R)-4-[3-(4-methyl-piperazin-1-ylmethyl)-[1,2,4]triazolo[4,3-a]pyridin-6-yloxy]-1,2,3,4-tetrahydro-naphthalen-1-yl}-urea formate salt]	10 to 100 nM
–	C[C@@H]1CCC[C@H](C)N1c1nnc2ccc(O[C@@H]3CC[C@H](NC(=O)NC4CC4)c4ccccc43)cn12 [Example 117, 1-Cyclopropyl-3-{(1S,4R)-4-[3-((2S,6R)-2,6-dimethyl-piperidin-1-yl)-[1,2,4]triazolo[4,3-a]pyridin-6-yloxy]-1,2,3,4-tetrahydro-naphthalen-1-yl}-urea formate salt]	< 10 nM
< 10 nM	COCCN(C)Cc1cccc(-n2nc(C(C)(C)C)cc2NC(=O)N[C@H]2CC[C@@H](Oc3ccc4nnc(N5CCCC[C@@H]5C)n4c3)c3ccccc32)c1 [Example 168, 1-[5-tert-Butyl-2-(3-{[(2-methoxy-ethyl)-methyl-amino]-methyl}-phenyl)-2H-pyrazol-3-yl]-3-{(1S,4R)-4-[3-((S)-2-methyl-piperidin-1-yl)-[1,2,4]triazolo[4,3-a]pyridin-6-yloxy]-1,2,3,4-tetrahydro-naphthalen-1-yl}-urea formate salt]	–
< 10 nM	C[C@H]1CCCCN1c1nnc2ccc(O[C@@H]3CC[C@H](NC(=O)Nc4cc(C(C)(C)C)nn4-c4cccc(OCCN5CCN(C)CC5)c4)c4ccccc43)cn12 [Example 158, 1-(5-tert-Butyl-2-{3-[2-(4-methyl-piperazin-1-yl)-ethoxy]-phenyl}-2H-pyrazol-3-yl)-3-{(1S,4R)-4-[3-((S)-2-methyl-piperidin-1-yl)-[1,2,4]triazolo[4,3-a]pyridin-6-yloxy]-1,2,3,4-tetrahydro-naphthalen-1-yl}-urea formate salt]	–
< 10 nM	Cc1ccc(-n2nc(C(C)(C)C)cc2NC(=O)N[C@H]2CC[C@@H](Oc3ccc4nnc([C@@H]5C[C@@H](F)CN5C)n4c3)c3ccccc32)cc1 [Example 91, 1-(5-tert-Butyl-2-p-tolyl-2H-pyrazol-3-yl)-3-{(1S,4R)-4-[3-((2S,4R)-4-fluoro-1-methyl-pyrrolidin-2-yl)-[1,2,4]triazolo[4,3-a]pyridin-6-yloxy]-1,2,3,4-tetrahydro-naphthalen-1-yl}-urea]	–
–	Cc1ccc(-n2nc(C(C)(C)C)cc2NC(=O)N[C@H]2CC[C@@H](Oc3ccc4nnc(CN5CCOCC5)n4c3)c3ccccc32)cc1 [Example 15, 1-(5-tert-Butyl-2-p-tolyl-2H-pyrazol-3-yl)-3-[(1S,4R)-4-(3-morpholin-4-ylmethyl-[1,2,4]triazolo[4,3-a]pyridin-6-yloxy)-1,2,3,4-tetrahydro-naphthalen-1-yl]-urea formate salt]	< 10 nM
< 10 nM	C[C@H]1COCCN1c1nnc2ccc(O[C@@H]3CC[C@H](NC(=O)Nc4cc(C(C)(C)C)nn4-c4cccc(OCCN(C)C)c4)c4ccccc43)cn12 [Example 141, 1-{5-tert-Butyl-2-[3-(2-dimethylamino-ethoxy)-phenyl]-2H-pyrazol-3-yl}-3-{(1S,4R)-4-[3-((S)-3-methyl-morpholin-4-yl)-[1,2,4]triazolo[4,3-a]pyridin-6-yloxy]-1,2,3,4-tetrahydro-naphthalen-1-yl}-urea formate salt]	–
< 10 nM	Cc1ccc(-n2nc(C(C)(C)C)cc2NC(=O)N[C@H]2CC[C@@H](Oc3ccc4nnc([C@@H]5CCCN5)n4c3)c3ccccc32)cc1 [Example 6, 1-(5-tert-Butyl-2-p-tolyl-2H-pyrazol-3-yl)-3-[(1S,4R)-4-((S)-3-pyrrolidin-2-yl-[1,2,4]triazolo[4,3-a]pyridin-6-yloxy)-1,2,3,4-tetrahydro-naphthalen-1-yl]-urea]	–
< 10 nM	C[C@H]1CCCCN1c1nnc2ccc(O[C@@H]3CC[C@H](NC(=O)Nc4cc(C(C)(C)C)nn4-c4cccc(CCN5CCCCC5)c4)c4ccccc43)cn12 [Example 135, 1-{5-tert-Butyl-2-[3-(2-piperidin-1-yl-ethyl)-phenyl]-2H-pyrazol-3-yl}-3-{(1S,4R)-4-[3-((S)-2-methyl-piperidin-1-yl)-[1,2,4]triazolo[4,3-a]pyridin-6-yloxy]-1,2,3,4-tetrahydro-naphthalen-1-yl}-urea formate salt]	–
< 10 nM	C[C@H]1COCCN1c1nnc2ccc(O[C@@H]3CC[C@H](NC(=O)Nc4cc(C(C)(C)C)nn4CCN4CCOCC4)c4ccccc43)cn12 [Example 142, 1-[5-tert-Butyl-2-(2-morpholin-4-yl-ethyl)-2H-pyrazol-3-yl]-3-{(1S,4R)-4-[3-((S)-3-methyl-morpholin-4-yl)-[1,2,4]triazolo[4,3-a]pyridin-6-yloxy]-1,2,3,4-tetrahydro-naphthalen-1-yl}-urea formate salt]	–
< 10 nM	C[C@H]1CCCCN1c1nnc2ccc(O[C@@H]3CC[C@H](NC(=O)Nc4cc(C(C)(C)C)nn4-c4ccnc(N(C)CCN(C)C)n4)c4ccccc43)cn12 [Example 140]	–
